From patent publication US6545019B2, “Method of modulating microglial activation for the treatment of acute and chronic neurodegenerative disorders” (Bristol-Myers Squibb Company, priority 2000, dated 2003)
Entries after “also recorded” stand apart in the source; their conditions may differ.

How the values were obtained:
[1] = test system: LPS activated rat microglia cells; assay: TNF-alpha release from LPS activated rat primary microglia (ELISA); type: cell-based; conditions: for TNF-alpha release: rat primary microglia, 100 ng/ml LPS, compound 1 hr before LPS, supernatant 24 hrs post-LPS
Description: (§1) Rat microglia were prepared from two day old rat pups. Pup brains were removed and the meninges were gently removed. Once sufficient amount of brains were collected, brains were minced with a blunt scissors (10 times) and transferred to a 15ml conical tube with a pasteur pipette and titurated 25 times. Dissociated cells were then centrifuged at 1000 RPM for 10 minutes (RT). The supernatant was removed and 2 mls of fresh media was added. The resultant cell suspension was titurated 10 times. Following titration the cell suspension was plated in a T175 cm^2 culture flasks at a density of 4 brains per flask in 25 mls. MEM media was used for the experiments, supplemented with 10% FBS, 100 i.u.penicillin, 100 i.u.streptomycin and L-Glutamine. Microglia were isolated on day 14 by shaking on an orbital rotation shaker. The purity of the cultures was 98-100% as determined by immunostaining with ED-40 antibody.
(§2) Endotoxin (LPS) at a concentration of a 100 ng/ml were used for activation of rat microglia cells. This concentration had previously shown to be effective in inducing TNF-alpha and Nitrite release. All assays were performed in 48 well plates (Becton Dickinson) at ˜2×10^5 cells or 0.5×10^5 per 1 ml per well in 10% MEM media. Microglia cells were pre-incubated 1 hr prior to LPS challenge with either vehicle (0.1%DMSO) or test compound in DMEM containing 10%FBS (microglia) or RPMI containing 10%FBS (THP-1 monocytes). Supernatants from LPS activated rat microglia were collected at 24 hrs post-LPS challenge.
Collected supernatants were assayed for TNF-alpha using a Pharmingen OPtEIA Rat (microglia).

[2] = test system: IκBα; assay: LPS mediated IκBα degradation in microglia (immunoblotting); type: cell-based, rat; conditions: 100 ng/ml LPS, 10μM ATFMK, 50μM L-655,238
Description: Immunoblotting was carried out as described previously (Parvathenani et al., 2000). Briefly 25μg of protein was fractionated on a 4-20% tris-glycine gel (NOVEX, Calif.) and transferred to PVDF membrane (NOVEX, Calif.). The membrane was probed with a polyclonal antibody specific for IκBα. To distinguish between the phosphorylated and non-phosphorylated forms of cPLA2, 50μg of protein was run on an 8% tris-glycine gel (Novex, Calif.) for 4.5 hours at 125V, transferred and probed with a monoclonal antibody specific for cPLA2.
Effects of cPLA2 and 5-LOX inhibitors on LPS mediated IκBα degradation. Microglia were treated with 100 ng/ml of LPS for various periods of time following which whole cell lysates were prepared and run on SDS-PAGE, transferred and probed with a IκBα antibody as mentioned in immunoblotting. (6A) 100 ng/ml LPS alone, (6B) LPS+10μM ATFMK, (6C) LPS+50μM L-655,238.

[3] = test system: NF-κB (p65); assay: LPS mediated NF-κB (p65) nuclear translocation in microglia (indirect immunofluorescence); type: cell-based, rat; conditions: 100 ng/ml LPS, 5 min, 10μM ATFMK, 50μM L-655,238
Description: Cells were washed once with PBS, fixed and permeabilized with ice cold methanol (100%) for 5 minutes and washed 3× in PBS for 10 min. The cover slips were blocked for 1 hour in 10% serum/PBS (serum derived from animal in which secondary antibody was generated), incubated for 2-3 hours in primary antibody solution (1:50 dilution in 1.5% serum/PBS) and washed 3× in PBS for 10 min. Secondary antibody linked to fluorescein was applied for one hour (1:100 dilution in 1.5% serum/PBS) and washed 3× in PBS for 10 min. If the nucleus was stained, the cells were incubated for 15 minutes with DAPI (1:10000) at 37° C. and washed. The coverslips were then mounted onto glass slides using mounting media and viewed under a fluorescence microscope.
Effects of cPLA2 and 5-LOX inhibitors on LPS mediated NF-κB translocation. Microglia were treated with 100 ng/ml of LPS for various periods of time following which p65 distribution was assessed by indirect immunofluorescence (7A) control, (7B) LPS-5 min., (7C) LPS+10μM ATFMK—5 min., (7D) LPS+50μM L-655,238—5 min. (7E) LPS+NDGA-20μM—5 min.

[4] = test system: LPS activated rat microglia cells; assay: Nitrite (NO) release from LPS activated rat primary microglia (Modified Griess Reagent); type: cell-based; conditions: 100 ng/ml LPS, compound 1 hr before LPS, supernatant 24 hrs post-LPS
Description: as §1, §2
Nitrite assay was performed in a 96 well plate using a Modified Griess Reagent (Sigma). In brief, a 100 ul of Modified Griess Reagent was added to a 100 ul of collected supernatant. Samples were read at a wavelength of 540nm. All values were calculated against a NaNO2 standard curve.

[5] = test system: IκBα phosphorylation; conditions: irreversible inhibitor; read-out: IC50, inhibition of IκBα phosphorylation; cited from earlier work
[6] = test system: 5-LOX; conditions: cited from earlier work
[7] = test system: COX; conditions: cited from earlier work

| SMILES | TNF-alpha release [1] | nitrite (NO) release [4] | further results |
| --- | --- | --- | --- |
| CCCCC/C=C\C/C=C\C/C=C\C/C=C\CCCC(=O)C(F)(F)F [ATFMK, arachidonyltrifluoromethyl ketone] | significant dose-dependent inhibition; also recorded: significantly inhibited TNF-alpha release | significant dose-dependent inhibition; also recorded: significantly inhibited nitrite release | degradation of IκBα following LPS stimulation [2]: attenuated the degradation of IκBα; translocation of NF-κB into the nucleus [3]: delayed the translocation of NF-κB into the nucleus |
| CC(C)(C)c1ccc(S(=O)(=O)/C=C/C#N)cc1 [BAY 11-7085, (E)3-((4-t-Butylphenyl)sulfonyl)-2-propenenitrile] | inhibited LPS induced TNFα and NO release to control levels | inhibited LPS induced TNFα and NO release to control levels | IC50 [5]: 10 µM |
| O=C(CCc1ccc(OCCS(=O)(=O)CCOC(c2ccc(Cl)cc2)c2ccc(Cl)cc2)cc1)C(F)(F)F [BMS 229724] | significant dose-dependent inhibition | significant dose-dependent inhibition | TNF-alpha release ([1]; listed as BMS-229724): significantly inhibited TNF-alpha release |
| CC(C)Cc1ccc(C(C)C(=O)O)cc1 (centres unmarked) [Ibuprofen] | failed to produce any reduction in TNF-alpha release | – | – |
| CC(Cc1ccc(O)c(O)c1)C(C)Cc1ccc(O)c(O)c1 (centres unmarked) [NDGA, nordihdroguaiaretic acid] | dose dependently inhibited TNF-alpha release and nitrite to near control levels; also recorded: significantly inhibited TNF-alpha release | dose dependently inhibited TNF-alpha release and nitrite to near control levels | IC50 [6]: […]; IC50 [7]: 100 µM |
| Cc1ccc(-c2cc(C(F)(F)F)nn2-c2ccc(S(N)(=O)=O)cc2)cc1 [celecoxib] | – | – | pro-inflammatory release on activated microglia [1]: no significant effect |
| CCCCCC(O)c1ccc(Cc2cnc3ccccc3c2)cc1 (stereo not drawn) [para-REV5901, α-pentyl-4-(3-quinolinylmethyl)benzenemethanol] | dose dependently inhibited TNF-alpha release and nitrite to near control levels; also recorded: significantly inhibited TNF-alpha release | dose dependently inhibited TNF-alpha release and nitrite to near control levels; also recorded: significantly inhibited nitrite release | IC50 [6]: 0.1 µM; degradation of IκBα following LPS stimulation [2]: attenuated the degradation of IκBα; translocation of NF-κB into the nucleus [3]: delayed the translocation of NF-κB into the nucleus |
| CS(=O)(=O)c1ccc(C2=C(c3ccccc3)C(=O)OC2)cc1 [rofecoxib] | failed to produce any reduction in TNF-alpha release | – | pro-inflammatory release on activated microglia [1]: no significant effect |
